{"source": "patent US12636292B2", "about": "“Method and composition for reversing and/or inhibiting atherosclerosis” (ARJIL BIOTECH HOLDING COMPANY LIMITED, priority 2019, dated 2026)", "key": {"IL-1β [1]": {"tested_on": "IL-1β", "assay": "ELISA of IL-1β in RAW264.7 macrophages", "format": "cell-based, mouse", "conditions": "20 μg/mL with 0.75 mM palm acid oil (272.3 without)"}, "TNF-α [2]": {"tested_on": "TNF-α", "assay": "ELISA of TNF-α in palm acid oil-treated vascular endothelial cells", "format": "cell-based, mouse", "protocol": "(§1) Vascular endothelial cells (SVEC4-10) were purchased from the Cell Bank of Hsin-Chu Food Industry Development Institute (FIRDI, Cat no: BCRC-60220). SVEC4-10 cells were cultured in high-glucose DMEM (Dulbecco's Modified Eagle Medium) (Gibco BRL, Grand Island, NY, USA) and supplemented with 10% Fetal Bovine Serum (FBS) (HyClone, Logan, UT, USA), 1.5 g/L sodium bicarbonate, 0.11 g/L sodium pyruvate, 4 mM L-glutamine, 100 U/mL penicillin, and 100 μg/mL streptomycin (Gibco BRL, Grand Island, NY, USA).\n(§2) These cells were grown in a culture medium and maintained in a humidified incubator at 37° C. and 5% CO2. Vascular endothelial cells were digested with 0.25% trypsin (Gibco BRL, Grand Island, NY, USA) for approximately 1 min until most cells detached. All cell densities were adjusted to 1×10^5 cells per well for each 24-well culture plate. After vascular endothelial cells were cultured for 24 h, in the hyperlipidemia group, 0.75 mM palm acid oil (CAS 57-10-3-800508; Sigma-Aldrich Co., St. Louis, MO, USA) (Oh et al., 2018) was added, and 10, 20, and 50 μg/mL of antcin K in each experiment was individually added.\n(§3) We analyzed the content of inflammatory cytokines by ELISA. The supernatant of SVEC4-10 cells with palm acid oil hyperlipidemia treatment was collected after 24 h of culture and added to a 96-well micro-well plate (Thermo Scientific Nunc®, Nunc AS, Copenhagen, Denmark). An amount of 100 μL/well of carbonate buffer containing antibodies of 32 ng/mL purified rat anti-mouse TNF-α (88-7324; Invitrogen, Carlsbad, CA, USA) or 32 ng/mL purified rat anti-mouse IL-1_(88-7013; Invitrogen, Carlsbad, CA, USA) was added to each well and kept at 4° C. overnight. After that, we washed three times with 0.05% phosphate-buffered saline with Tween 20 (PBST) buffer to remove unbound monoclonal antibodies. Then, we added 200 μL/well of blocking solution to reduce nonspecific binding. […] The reaction was terminated with 2% H2SO4, and the absorbance at 450-570 nm was measured."}, "RAW264.7 macrophages": {"tested_on": "RAW264.7 macrophages", "assay": "Cellular migration assay (transwell)", "format": "cell-based", "conditions": "48 h", "protocol": "RAW264.7 macrophage was purchased from the Hsin-Chu Food Industry Development Institute Cell Bank (FIRDI, Cat no: BCRC-60001). The cell culture medium contains high-glucose DMEM (Gibco BRL, Grand Island, NY, USA), 10% FBS, 1.5 g/L sodium bicarbonate, 0.11 g/L sodium pyruvate, 4 mM L-glutamine, 100 U/mL penicillin, and 100 μg/mL streptomycin. These cells were maintained in a humidified incubator at 37° C. and 5% CO2. After collecting the cells with a spatula, for each 24-well culture plate, all cell densities were adjusted to 1×10^5 cells per well for migration assays.\nWe used a cellular migration assay to examine the cellular migration ability of RAW 264.7 macrophages toward vascular endothelial cells with high-fat damage. The cellular migration assay has been clearly described in a previous report (Hwang et al., 2021). Transwells (Corning, New York, NY, USA) with 8.0 μm pore size were used in this experiment for cell migration assays. In total, 1×10^5 RAW264.7 macrophage, labeled with the red fluorescent dye of 1,1′-Dioctadecyl-6,6′-Di(4-Sulfophenyl) (SP-Di1C18(3)), was added to the upper layer of transwell after 48 h. […] Images were taken with a fluorescence microscope (Leica Microsystems, Wetzlar, Germany), and analysis was performed using Leica Application Suite software (LAS) V4.12 s (Leica Microsystems, Wetzlar, Germany) after 48 h of culture."}, "[3]": {"assay": "DPPH free radical scavenging assay", "format": "biochemical", "protocol": "The antioxidant capacity of antcin K was examined by 1,1-diphenyl-2-trinitrophenylhydrazyl (DPPH) assay in this study. We formulated DPPH (D9132, Sigma-Aldrich Co., St. Louis, MO, USA) at a concentration of 1.5 mM per 1 mL and added 9 mL of methanol (322415, Sigma-Aldrich Co., St. Louis, MO, USA) to the mixed solution. The 100 μL of DPPH and 100 μL of 10, 20, and 50 μg/mL of test samples were taken, shaken, and mixed evenly, then placed at room temperature for 30 min in the dark. After that, the absorbance was measured at 517 nm using an ultraviolet/visible light spectrometer (Microplate Spectrophotometer, uQuant, Biotek Instruments, Inc., Winooski, VT, USA).\nDifferent concentrations of test samples were prepared and compared with the standard L-Ascorbic acid (L-AA) (A5960, Sigma-Aldrich Co., St. Louis, MO, USA). Based on the reduction percentage of the absorbance value observed in the control group, the antioxidant capacity of each test sample to scavenge DPPH free radicals can be judged. After that, the test sample with the most robust ability to scavenge DPPH free radicals was selected and repeated three times. The formula is as follows: DPPH free radical scavenging rate (%)=(1−(absorption value of experimental group/absorption value of control group))×100."}, "[4]": {"tested_on": "vascular endothelial cells", "assay": "Cellular lipid deposition assay (oil red O staining)", "format": "cell-based", "conditions": "different concentrations of antcin K", "protocol": "We used oil red O staining which was clearly described in a previous report (Luo et al., 2021) to examine cellular lipid deposition. RAW264.7 macrophages were fixed with 2% paraformaldehyde for 10-15 min at room temperature, washed three times with phosphate-buffered saline (PBS) and twice with ddH2O, and stained with 5% oil red O dye for 15 min at room temperature, then the supernatant was discarded. Vascular endothelial cells and RAW264.7 macrophages were infiltrated with 60% isopropanol, washed twice with ddH2O, and photographed with an optical microscope (Olympus BH2 system light microscope, Olympus Corporation, Tokyo, Japan)."}, "CD36": {"tested_on": "CD36", "assay": "Immunofluorescence staining of CD36 in vascular endothelial cells", "format": "cell-based, mouse", "conditions": "20 μg/mL with 0.75 mM palm acid oil", "protocol": "as §1\n(§4) These cells were grown in a culture medium and maintained in a humidified incubator at 37° C. and 5% CO2. […]\n(§5) We used immunofluorescence staining to examine expressions of KLF4 and CD36. […] Note that this step needs to be protected from light at the beginning Nuclei were stained with 1 μg/mL diamino-2-phenilindole (DAPI) (D3286, Sigma-Aldrich Co., St. Louis, MO, USA) for 10 min at room temperature after washing three times with PBS and mounted with a fluorescent protectant-containing adhesive to reduce fluorescence decay. Fluorescent images were obtained using a Leica DM IRB inverted fluorescence microscope (Leica Microsystems, Wetzlar, Germany), and analysis was performed using Leica Application Suite software (LAS) V4.12 s (Leica Microsystems, Wetzlar, Germany). The Rhodamine fluorescence-labeled cytoskeleton was visualized at 565 nm by exciting cells at 540 nm. […]"}, "IL-1β [5]": {"tested_on": "IL-1β", "assay": "ELISA of IL-1β in palm acid oil-treated vascular endothelial cells", "format": "cell-based, mouse", "protocol": "as §1, §2, §3"}, "TNF-α [6]": {"tested_on": "TNF-α", "assay": "ELISA of TNF-α in RAW264.7 macrophages", "format": "cell-based, mouse", "conditions": "20 μg/mL with 0.75 mM palm acid oil (856.9 without)"}, "KLF4": {"tested_on": "KLF4", "assay": "Immunofluorescence staining of KLF4 in vascular endothelial cells", "format": "cell-based, mouse", "conditions": "20 μg/mL with 0.75 mM palm acid oil; p<0.01", "protocol": "as §1, §4, §5"}, "VCAM-1": {"tested_on": "VCAM-1", "assay": "Immunofluorescence staining of VCAM-1 in vascular endothelial cells", "format": "cell-based, mouse", "conditions": "20 μg/mL with 0.75 mM palm acid oil; p<0.01"}, "[7]": {"tested_on": "SVEC4-10 vascular endothelial cells", "assay": "MTT cell viability assay", "format": "cell-based", "conditions": "for cell viability of vascular endothelial cells: sham = 100%", "protocol": "as §1, §2\nWe used a 3-(4,5-Dimethylthiazol-2-yl)-2,5-diphenyltetrazolium bromide (MTT) assay to examine the cell viability of antcin K in this study. A total of 1×10^5 cells/mL SVEC4-10 cells were added to a 24-well plate, and 0.5 mM palm acid oil (Sigma-Aldrich Co., St. Louis, MO, USA) was partially added, and 10, 20, and 50 μg/mL of test samples were added to SVEC4-10 cells, followed by culturing within 24 h. After adding 0.5 mg/mL of MTT solution (M5655, Sigma-Aldrich Co., St. Louis, MO, USA) and culturing for 2 h, the supernatant was removed, and 100 μL/well of DMSO organic solvent was added, followed by a 5 min shaking and then absorbance measurement at 570 nm."}, "[8]": {"assay": "Body weight in hypercholesterolemic rabbit model", "format": "in vivo", "conditions": "rabbits on chow with 0.5% cholesterol plus 1% extract, 10 mg/kg pure compound or 10 mg/kg lovastatin; during the intervention", "protocol": "(§6) 2 to 3 kg male, New Zealand White rabbits were individually caged and housed in temperature and humidity-controlled rooms. Light-dark cycles were 12 h each. After several days of acclimation, the animals were sequentially assigned to six feeding groups: standard rabbit chow (ND), standard rabbit chow containing 0.5% cholesterol (HF), standard rabbit chow containing both 0.5% cholesterol and 10 mg/kg Lovastatin (L), standard rabbit chow containing both 0.5% cholesterol and 1% ARH003 (ARH003), standard rabbit chow containing both 0.5% cholesterol and 1% ARH004 (ARH004), standard rabbit chow containing both 0.5% cholesterol and 10 mg/kg Pure compound (P).\n(§7) Except standard rabbit chow, others groups were given standard rabbit chow containing 0.5% cholesterol for 4 weeks. The daily feeding amount for each rabbit was 50 g/kg body weight per day.\n(§8) Diets were administered for 8 weeks, after the animals had adjusted to their new environment. At the beginning and end of the 12 weeks study, the rabbits were anesthetized by an intramuscular injection of Zoletil 50 (1 mL/kg) (Virbac Ltd., France), and blood samples were harvested. Finally, the aortas (from aortic arch to the bifurcation of the iliac arteries) and whole livers were collected from the rabbits after they were sacrificed for further histopathological analyses."}, "[9]": {"assay": "Blood chemistry analysis (serum triglyceride, total cholesterol) in hypercholesterolemic rabbits", "format": "in vivo, rabbit", "conditions": "week 12; rabbits on 0.5% cholesterol chow plus 1% extract, 10 mg/kg pure compound or 10 mg/kg lovastatin; vs high fat diet group", "protocol": "as §6, §7, §8\nThe animals were fasted overnight before blood drawing. […]"}}, "data": [{"smiles": "C=C(CC[C@@H](C)[C@H]1CC[C@H]2C3=C(C(=O)C[C@]12C)[C@@]1(C)CC[C@H](O)[C@](C)(O)C1CC3O)C(C)C(=O)O", "note": "(stereo partly shown) [antcin K, 3a,4b,7b-tri-hydroxy4a-methylergosta-8,24(28)-dien-11-on-26-oic acid]", "values": [{"measurement": "expression of IL-1β of RAW264.7 macrophage cells", "setting": "IL-1β [1]", "result": 189.2, "unit": "pg/mL"}, {"measurement": "expression of TNF-α of vascular endothelial cells", "setting": "TNF-α [2]; 10 μg/mL with 0.75 mM palm acid oil (285.5 without)", "result": 178.8, "unit": "pg/mL"}, {"measurement": "expression of TNF-α of vascular endothelial cells", "setting": "TNF-α [2]; 20 μg/mL with 0.75 mM palm acid oil (285.5 without)", "result": 180.3, "unit": "pg/mL"}, {"measurement": "expression of TNF-α of vascular endothelial cells", "setting": "TNF-α [2]; 50 μg/mL with 0.75 mM palm acid oil (285.5 without)", "result": 181.0, "unit": "pg/mL"}, {"measurement": "migration of RAW264.7 macrophages to palm acid oil-treated vascular endothelial cells", "setting": "RAW264.7 macrophages", "result": "enhanced"}, {"measurement": "free radicals scavenging efficiency (DPPH)", "setting": "[3]; 20 μg/mL", "result": 96.82, "unit": "%"}, {"measurement": "free radicals scavenging efficiency (DPPH)", "setting": "[3]; 50 μg/mL", "result": 98.81, "unit": "%"}, {"measurement": "lipid deposition in palm acid oil-treated vascular endothelial cells", "setting": "[4]", "result": "decreased"}, {"measurement": "expression of CD36 in palm oil-treated vascular endothelial cells", "setting": "CD36", "result": "decreased"}, {"measurement": "expression of IL-1β of vascular endothelial cells", "setting": "IL-1β [5]; 10 μg/mL with 0.75 mM palm acid oil (86.6 without)", "result": 70.2, "unit": "pg/mL"}, {"measurement": "expression of IL-1β of vascular endothelial cells", "setting": "IL-1β [5]; 20 μg/mL with 0.75 mM palm acid oil (86.6 without)", "result": 69.3, "unit": "pg/mL"}, {"measurement": "expression of IL-1β of vascular endothelial cells", "setting": "IL-1β [5]; 50 μg/mL with 0.75 mM palm acid oil (86.6 without)", "result": 71.5, "unit": "pg/mL"}, {"measurement": "expression of TNF-α of RAW264.7 macrophages", "setting": "TNF-α [6]", "result": 690.7, "unit": "pg/mL"}, {"measurement": "expression of KLF4 in palm acid oil-treated vascular endothelial cells", "setting": "KLF4", "result": "significantly increased"}, {"measurement": "expression of VCAM-1 in palm acid oil-treated vascular endothelial cells", "setting": "VCAM-1", "result": "significantly decreased"}, {"measurement": "cell viability of vascular endothelial cells", "setting": "[7]; 10 μg/mL with 0.75 mM palm acid oil", "result": 71.5, "unit": "%"}, {"measurement": "cell viability of vascular endothelial cells", "setting": "[7]; 20 μg/mL with 0.75 mM palm acid oil", "result": 84.6, "unit": "%"}, {"measurement": "cell viability of vascular endothelial cells", "setting": "[7]; 50 μg/mL with 0.75 mM palm acid oil", "result": 109.2, "unit": "%"}, {"measurement": "change of cell viability of vascular endothelial cells", "setting": "[7]; 10, 20 and 50 μg/mL without palm acid oil damage", "result": "not very obvious"}, {"measurement": "IC50", "setting": "[7]; Mus musculus, SVEC4-10, antcin K treatment 0-50 μg/mL, MTT", "result": "> 50", "unit": "µg/mL"}]}, {"smiles": "CC[C@H](C)C(=O)O[C@H]1C[C@@H](C)C=C2C=C[C@H](C)[C@H](CC[C@@H]3C[C@@H](O)CC(=O)O3)[C@H]21", "note": "[lovastatin]", "values": [{"measurement": "body weight gains", "setting": "[8]", "result": "did not affect"}, {"measurement": "serum total cholesterol levels", "setting": "[9]", "result": "higher"}]}]}
